Assay results published in PubChem BioAssay (NCI).
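Exposure lasted 48 hours, with cells grown in 96-well plates and compounds tested at five concentrations. Definition used: TGI = concentration required for complete inhibition of growth.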

Key:
Assay in all cases: growth of human tumour cells (NCI), 48 h
[1] = tested on: OVCAR-3 ovarian
[2] = tested on: LXFL 529 NSCLC
[3] = tested on: OVCAR-8 ovarian
[4] = tested on: RPMI-8226 leukemia
[5] = tested on: RXF-631 renal
[6] = tested on: MALME-3M melanoma
[7] = tested on: NCI-H23 lung
[8] = tested on: SNB-19 CNS
[9] = tested on: HCT-116 colon
[10] = tested on: CCRF-CEM leukemia
[11] = tested on: SK-OV-3 ovarian
[12] = tested on: A498 renal
[13] = tested on: SF-295 CNS
[14] = tested on: HCC-2998 colon
[15] = tested on: HT29 colon
[16] = tested on: DLD-1 colon
[17] = tested on: U251 CNS
[18] = tested on: SF-539 CNS
[19] = tested on: UO-31 renal
[20] = tested on: HL-60(TB) leukemia
[21] = tested on: UACC-62 melanoma
[22] = tested on: TK-10 renal
[23] = tested on: SNB-78 CNS
[24] = tested on: XF 498 CNS
[25] = tested on: SN12C renal
[26] = tested on: SW-620 colon
[27] = tested on: IGROV1 ovarian
[28] = tested on: SNB-75 CNS
[29] = tested on: UACC-257 melanoma
[30] = tested on: ACHN renal
[31] = tested on: HOP-18 NSCLC
[32] = tested on: LOX IMVI melanoma
[33] = tested on: 786-0 renal
[34] = tested on: A549 NSCLC
[35] = tested on: DMS 273 small cell lung
[36] = tested on: HOP-62 NSCLC
[37] = tested on: SK-MEL-5 melanoma
[38] = tested on: CAKI-1 renal
[39] = tested on: NCI-H226 lung
[40] = tested on: OVCAR-4 ovarian
[41] = tested on: NCI-H460 lung
[42] = tested on: KM20L2 colon
[43] = tested on: SK-MEL-2 melanoma
[44] = tested on: M14 melanoma
[45] = tested on: K-562 leukemia
[46] = tested on: KM12 colon
[47] = tested on: COLO 205 colon
[48] = tested on: HCT-15 colon
[49] = tested on: DMS 114 small cell lung
[50] = tested on: EKVX NSCLC
[51] = tested on: MOLT-4 leukemia
[52] = tested on: OVCAR-5 ovarian
[53] = tested on: HOP-92 NSCLC

Measured: TGI

O=C1c2cccc3c(Cl)ccc(c23)C(=O)N1CCCN1CCN(CCCN2C(=O)c3cccc4c(Cl)ccc(c34)C2=O)CC1
> 100 µM: [1] | [2] | [3] | [4] | [5] | [6] | [7] | [8] | [9] | [10] | [11] | [12] | [13] | [14] | [15] | [16] | [17] | [18] | [19] | [20] | [21] | [22] | [23] | [24] | [25] | [26] | [27] | [28] | [29] | [30] | [31] | [32] | [33] | [34] | [35] | [36] | [37] | [38] | [39] | [40] | [41] | [42] | [43] | [44] | [45] | [46] | [47] | [48] | [49] | [50] | [51] | [52] | [53]
